Measured values reported in the NIST ThermoML archive (doi:10.1021/je2008704).

Details: Liquid, Ebulliometric method (Recirculating still)

OCCO [1,2-ethanediol]
Details	vapor or sublimation pressure [kPa]
412.81 K	13.33
422.78 K	20
430.26 K	26.66
436.37 K	33.33
441.5 K	40
445.96 K	46.66
449.93 K	53.33
453.52 K	60
456.78 K	66.66
459.79 K	73.33
462.58 K	79.99
465.18 K	86.66
467.62 K	93.32
469.48 K	98.66
470.02 K	100.4

CCO [ethanol]
Details	vapor or sublimation pressure [kPa]
329.67 K	40
336.06 K	53.33
341.23 K	66.66
345.59 K	79.99
349.38 K	93.32
351.03 K	99.74

O [water]
Details	vapor or sublimation pressure [kPa]
349.09 K	40
356.17 K	53.33
361.87 K	66.66
366.69 K	79.99
370.88 K	93.32
372.76 K	100
